Data published in patent EP2753335B1, “AN ANTHRACYCLINE FOR THE TREATMENT OF SEPSIS” (Instituto de Medicina Molecular, priority 2011, dated 2013).
Structures can show the parent of a compound that is named as a salt.

Key:
[1] = test system: C57BL/6 mice subjected to CLP; assay: Cecal ligation and puncture (CLP) mouse model of severe sepsis, survival; type: in vivo; details: for protection against severe CLP (survival, in words): doxorubicin 0.5ug/g, daunorubicin 0.6µg/g body weight at the time of procedure and 24 hours later, Figure 6
Protocol: We choose the cecal ligation and puncture (CLP) mouse model to investigate the in vivo effects of epirubicin. In CLP, sepsis results from a polymicrobial infectious abdominal origin, leading to bacteraemia and a systemic inflammatory response^15.
Animal care and experimental procedures were conducted in accordance with Portuguese and US guidelines and regulations after approval by the respective local committees (Instituto de Medicina Molecular and Instituto Gulbenkian de Ciência). All mice used were 8-12 weeks old. Mice were bred and maintained under specific pathogen-free (SPF) conditions. C57BL/6 and C57BL/6 ATM^-/- were obtained from the Instituto Gulbenkian de Ciência (a kind gift from Dr. Vasco Barreto). C57BL/6 Nrf2^-/- mice were provided originally from the RIKEN BioResource Center (Koyadai, Tsukuba, Ibaraki, Japan)^31 and subsequently at the Institute Gulbenkian de Ciência. Cecal Ligation and Puncture was performed as described previously^15.

IL-1β [2] = assay: In vitro chemical screen (Spectrum collection): IL-1β secretion by E. coli challenged THP-1 cells, DAS-ELISA; type: cell-based, human; details: THP-1 cells, 10µM compound for 1 hour, then PFA-fixed E. coli (MOI 20) for 24 hours
Protocol: (§1) We identified 45 leading candidates (Figure 1A and Table I) that inhibited both cytokines.
(§2) THP-1 human monocytes (American Tissue Culture Collection-ATCC TIB-202) were plated in 96 well plates at 10^6 cell/ml and incubated with each one of ∼2320 compounds included in the Spectrum collection (Microsource Discovery Systems, Gaylordsville, CT) at 10µM for 1 hour. Cells were then challenged with 4% PFA-fixed DH5α E.coli at a Multiplicity of Infection (MOI) of 20 bacterial cells per THP-1 cell for an additional 24 hours. The cell supernatants were collected and IL-1β and TNF cytokines quantified by DAS-ELISA, using Human IL-1β/IL-1F2 DuoSet® and Human TNF DuoSet® (R&D Systems ®), respectively, according to company's protocol.
(§3) We generated a working subset of The RNAi Consortium (TRC) shRNA lentiviral vector library ^33,33 that allows for the silencing of most of the genes that are either human kinases or phosphatases. This subset was composed of 1440 individually arrayed lentiviral shRNA vectors targeting ∼700 genes, after selecting the most efficient shRNAs (two on average) based on available silencing efficiency data from the Broad Institute of MIT and Harvard. THP-1 cells were plated in 96 well plates at 10^6 cell/ml and infected with shRNA-expressing lentivirus. 48 hrs later infected cells were selected with puromycin. After the 3 days of selection, plates were duplicated. One of the plates was used to measure the cell number using Alamar Blue® cell viability assay (Invitrogeia®), according to manufacturer's instructions. In the other plate, cells were stimulated with 4% PFA-fixed DH5α E.coli at a Multiplicity of Infection (MOI) of 20 bacterial cells per THP-1 cell. Twenty-four hours after stimulation, cell supernatants were collected and IL-1β and TNF cytokines quantified by DAS-ELISA. All data values from IL-1β and TNF secretion assays were normalized by dividing the amount of IL-1β and TNF in the conditioned media 24, 12, 8, 6, 4 or 2 hrs after E. coli stimulation by the number of cells in each well and then by the average concentration per cell of the plate. Results were logarithmic natural transformed. Scores were sorted in ascending order and graphed. We calculated 1.5 SDEVs above and below the mean to identify the genes that changed IL-1β and TNF secretion when silenced. The same approach was used to identify the compounds that changed IL-1β and TNF secretion. The selected genes were submitted to two or more rounds of phenotypic validation.

TNF [3] = assay: In vitro chemical screen (Spectrum collection): TNF secretion by E. coli challenged THP-1 cells, DAS-ELISA; type: cell-based, human; details: THP-1 cells, 10µM compound for 1 hour, then PFA-fixed E. coli (MOI 20) for 24 hours
Protocol: as §1, §2, §3

muHV-4 virus = assay: Clearance of a secondary intranasal infection one week after administration; type: in vivo; details: compared with control mice, unpublished data
IL-1β [4] = assay: Concentration-response validation: IL-1β production by E. coli challenged THP-1 cells; type: cell-based, human
Protocol: (§4) • Figure 1 represents a primary screen to identify compounds in the Spectrum Collection library that inhibit the secretion of TNF and IL-1β. (A) it is a two-dimension plot of TNF and IL-1β production Z scores calculated upon THP-1 cells challenge with PFA-fixed E. coli for 24 hours in the presence of 10µM of each compound. The square defines the area in which compounds are considered primary hits, i.e., inhibiting both TNF and IL-1β, (B) represents the IL-1β and TNF production by E. coli challenged THP-1 cells (4 hours) after a pre-incubation (1 hour) with increasing concentrations of epirubicin. Results shown represent mean ± standard deviation from triplicate samples in one of 3 independent assays. (C) is a transcriptional profiling of THP-1 cell line response to epirubicin and unsupervised clustering of microarray expression profiles. […] Plots depict relative expression of IL-1β, TNF, CCL2, CXCL10, STAT1, STAT2, START4 and STAT5a as assessed by qRT-PCR in E. coli challenged THP-1 cells (4 hours) after a pre-incubation (1 hour) with 5µM epirubicin. […] Results shown represent mean values ± SEM from triplicate readings per animal. […] (D) relates to the expression of IL-1β, TNF, CCL2 and CXCL10 as assessed by qRT-PCR in THP-1 cells treated as in (C). […]

TNF [5] = assay: Concentration-response validation: TNF production by E. coli challenged THP-1 cells; type: cell-based; details: Homo sapiens; E. coli challenged THP-1 cells (4 hours) after pre-incubation (1 hour) with increasing concentrations; read-out: half-inhibitory concentration (IC50) for TNF
Protocol: as §4

THP-1 cells = assay: Autophagy induction in THP-1 cells, flow cytometry with Cyto-ID Green; type: cell-based, human; details: KU-55933 2µM plus epirubicin 1µM (1 hour), PFA-fixed E. coli 4 hours

Row | Compound | Z score IL1b (IL-1β [2]) | Z score TNFa (TNF [3]) | also measured
1 | COc1cccc2c1C(=O)c1c(O)c3c(c(O)c1C2=O)C[C@@](O)(C(C)=O)C[C@@H]3O[C@H]1C[C@H](N)[C@H](O)[C@H](C)O1 [Daunorubicin] | -0,995459172 | -3,007093086 | protection against severe CLP (survival, in words) [1]: comparable protection
2 | COc1cccc2c1C(=O)c1c(O)c3c(c(O)c1C2=O)C[C@@](O)(C(=O)CO)C[C@@H]3O[C@H]1C[C@H](N)[C@H](O)[C@H](C)O1 [Doxorubicin] | -2,412138965 | -4,071115136 | protection against severe CLP (survival, in words) [1]: comparable protection
3 | COc1cccc2c1C(=O)c1c(O)c3c(c(O)c1C2=O)C[C@@](O)(C(=O)CO)C[C@@H]3O[C@H]1C[C@H](N)[C@@H](O)[C@H](C)O1 [Epirubicin hydrochloride] | -1,212875226 | -4,474857631 | immune competence: clearance of secondary intranasal muHV-4 infection (muHV-4 virus): not immunocompromised; increase of survival of mice subjected to CLP ([1]; i.p. in PBS at the time of CLP and 24hrs later, total 1.2µg/g body weight, no antibiotic, wildtype C57BL/6): ~80%; IC50 (IL-1β [4]; Homo sapiens, THP-1, read-out: half-inhibitory concentration (IC50) for IL-1β): 400 nM; IC50 (TNF [5]): 500 nM
4 | O=c1cc(-c2cccc3c2Sc2ccccc2S3)oc(N2CCOCC2)c1 [KU-55933] | – | – | rescue of epirubicin-mediated IL-1β down-regulation (IL-1β [4]; KU-55933 2µM together with epirubicin 1µM, THP-1 cells, E. coli 4 hours): could be rescued; effect of ATM inhibitor pre-treatment on epirubicin-induced autophagy (THP-1 cells): eliminates this effect
5 | CC[C@@]1(O)C[C@H](O[C@H]2C[C@H](N(C)C)[C@H](O)[C@H](C)O2)c2c(cc3c(c2O)C(=O)c2c(O)ccc(O)c2C3=O)[C@H]1C(=O)OC [Pyrromycin] | -1,456377283 | -2,980583694 | –
6 | Cc1cc(/C=C/c2ccc3cc(N(C)C)ccc3[n+]2C)c(C)n1-c1ccccc1 [Pyrvinium pamoate] | -1,683811286 | -2,268148981 | –
7 | C[n+]1cc2c3c(ccc2c2ccc4cc5c(cc4c21)OCO5)OCO3 [Sanguinarine sulfate] | -1,160017114 | -2,651620816 | –
8 | C[C@H]1CC[C@]2(NC1)O[C@H]1C[C@H]3[C@@H]4CC[C@H]5C[C@@H](O[C@@H]6O[C@H](CO)[C@H](O[C@@H]7O[C@H](CO)[C@@H](O)[C@H](O[C@@H]8OC[C@@H](O)[C@H](O)[C@H]8O)[C@H]7O[C@@H]7O[C@H](CO)[C@@H](O)[C@H](O)[C@H]7O)[C@H](O)[C@H]6O)CC[C@]5(C)[C@H]4CC[C@]3(C)[C@H]1[C@@H]2C [Tomatine] | -2,626087357 | -4,440219344 | –
9 | COc1cc([C@@H]2c3cc4c(cc3[C@@H](O[C@@H]3O[C@@H]5CO[C@@H](C)O[C@H]5[C@H](O)[C@H]3O)[C@H]3COC(=O)[C@H]23)OCO4)cc(OC)c1O [etoposide] | – | – | rescue of mortality induced by CLP ([1]; etoposide 2.0µg/g body weight, at the time of procedure and 24 hours later, wildtype C57BL/6): only partially rescues the mortality induced by CLP
10 | C=C1C(=O)O[C@@H]2[C@H]3O[C@]3(C)CC/C=C(\C)CC[C@@H]12 [parthenolide] | -0,921962794 | -2,842267433 | –
11 | Colistin sulfate | -0,918619053 | -3,457325884 | –
12 | Gramicidin | -1,84556962 | -2,91855912 | –
13 | Mepartricin | -1,081865327 | -2,504992413 | –
14 | Pyrithione zinc | -1,872292546 | -2,951809549 | –
